Drawing on ChEMBL document CHEMBL1201862, “PubChem BioAssay data set” (2004), this text covers EC50 and AC50 for 20 molecules.

Activity calls are given as the source filed them.

Cytochrome P450 2C9, sequence (P11712 whole entry): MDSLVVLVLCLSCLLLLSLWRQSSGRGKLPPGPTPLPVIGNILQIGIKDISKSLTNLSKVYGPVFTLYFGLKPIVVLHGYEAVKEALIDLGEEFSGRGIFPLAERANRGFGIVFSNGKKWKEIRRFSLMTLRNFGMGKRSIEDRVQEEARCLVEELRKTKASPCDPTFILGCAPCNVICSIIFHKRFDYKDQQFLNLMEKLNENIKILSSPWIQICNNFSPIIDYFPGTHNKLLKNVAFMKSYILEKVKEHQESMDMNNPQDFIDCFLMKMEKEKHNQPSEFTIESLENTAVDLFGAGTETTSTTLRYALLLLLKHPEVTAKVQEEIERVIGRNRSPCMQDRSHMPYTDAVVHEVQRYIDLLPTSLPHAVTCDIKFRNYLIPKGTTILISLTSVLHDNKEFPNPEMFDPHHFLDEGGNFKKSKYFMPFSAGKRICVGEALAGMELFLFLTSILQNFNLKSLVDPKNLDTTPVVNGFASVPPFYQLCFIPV

System in one experiment: not listed separately
The experiment can be described thus: NIH-3T3 fibroblast cytotoxicity, dose response, cytotoxicity control, cell-based, fluorescence, Alamar Blue, secondary assay (AID 2327).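 Further: NIH-3T3 mouse fibroblasts cultured with fluconazole at 8 µg/mL.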 In kind it is functional.
Settings: not given
As for `O=C1C2CCN(CC2)C1Cc1ccc(OCCOc2ccccc2)cc1` (stereo unspecified), the EC50 (in general, the concentration at which the effect is half-maximal) is 30.6 µM (active).

System in a further experiment: not listed separately
The experiment can be described thus: Luminescence Cell-Based Dose Confirmation HTS to Identify Activators of 5'UTR Stem-Loop Driven Alpha-Synuclein mRNA Translation in H4 Neuroglioblastoma Cells. [Related pubchem assays: 1829 (Project Summary), 1814 (Primary HTS)]. The class given is functional.
Settings: not given
Regarding `c1ccc(CSc2nnc(Cc3ccccc3)o2)cc1`, the EC50 is 14.4 µM (active).
On the same count and under the same terms, as for `CCOC(=O)c1ccc(Nc2nnc(C)c3ccccc23)cc1`, the figure is 14.4 µM (active).
As to `Cc1nc2ccccc2[nH]c(=O)c1=NNc1ccccc1`, the 50% effective concentration (EC50) was 24.1 µM (active).
Take `Brc1ccc2nc(-c3cccs3)c(NCC3CCCO3)n2c1` (stereo unspecified): the EC50 was 18.9 µM (active).
Turning to `Fc1cc(Br)ccc1N=C(S)NCCc1ccccc1`, the EC50 was 15.9 µM (active).
Regarding `O=C1N=C(c2ccccc2)N(c2ccccc2)C(=O)/C1=C(/O)c1ccccc1`, the concentration giving a half-maximal response (EC50) is 19.2 µM (active).
Still for that read-out and setting: as for `Cc1cc(/C=C2\SC(N)=NC2=O)c(C)n1-c1ccccc1`, the figure is 0.167 µM (active); as for `CN1CCN(C(=O)c2ccc(COc3ccc(C(C)(C)C)cc3)o2)CC1`, 4.82 µM (active).

System in the next experiment: not listed separately
The experiment can be described thus: Luminescence Cell-Based Dose Response HTS to Identify Activators of Luciferase Translation or Activity in H4 […] Cells. [Related pubchem assays: 1829 (Project Summary), 1814 (Primary HTS)]. In kind it is functional.
Settings: not given
As for `c1ccc(CSc2nnc(Cc3ccccc3)o2)cc1`, the EC50 was 16.8 µM (active).
As to `CCOC(=O)c1ccc(Nc2nnc(C)c3ccccc23)cc1`, the half-maximal effective concentration (EC50) is 18.6 µM (active).
As for `Cc1nc2ccccc2[nH]c(=O)c1=NNc1ccccc1`, the EC50 is on record as > 120 µM (not active).
For the molecule `Brc1ccc2nc(-c3cccs3)c(NCC3CCCO3)n2c1` (stereo unspecified), the EC50 is 9.6 µM (active).
Turning to `Fc1cc(Br)ccc1N=C(S)NCCc1ccccc1`, the EC50 is 21.3 µM (active).
As for `O=C1N=C(c2ccccc2)N(c2ccccc2)C(=O)/C1=C(/O)c1ccccc1`, the EC50 was > 120 µM (not active).
Turning to `Cc1cc(/C=C2\SC(N)=NC2=O)c(C)n1-c1ccccc1`, the EC50 is 0.143 µM (active).
For `CN1CCN(C(=O)c2ccc(COc3ccc(C(C)(C)C)cc3)o2)CC1`, the EC50 was 0.148 µM (inconclusive).

For another experiment, the system named is BJ. The experiment can be described thus: BJ-TERT fibroblast viability loss – cell-based, RAS-independent, luminescence, dose response (AID 1933). The class given is functional. The note with it: Homo sapiens.
Consider `COc1cccc(NC(=O)c2ccc3c(c2)OCCO3)c1`, for which the EC50 is 20.9 µM (active).
With `O=C1C2CCN(CC2)C1Cc1ccc(OCCOc2ccccc2)cc1` (stereo unspecified), the EC50 was > 150 µM (not active).

In another experiment the test system is H4. Nature of the experiment: Luminescence Cell-Based Dose Response HTS to Identify Activators of 5'UTR Stem-Loop Driven Prion Protein mRNA Translation in H4 Neuroglioblastoma Cells. [Related pubchem assays: 1829 (Project Summary), 1814 (Primary HTS)]. In kind it is functional. The note with it: Homo sapiens.
`c1ccc(CSc2nnc(Cc3ccccc3)o2)cc1`: the EC50 is > 120 µM (not active).
Take `CCOC(=O)c1ccc(Nc2nnc(C)c3ccccc23)cc1`: the EC50 is 16.9 µM (active).
In the case of `Cc1nc2ccccc2[nH]c(=O)c1=NNc1ccccc1`, the EC50 is 19 µM (active).
The same measure, in the same setting: as for `Brc1ccc2nc(-c3cccs3)c(NCC3CCCO3)n2c1` (stereo unspecified), the figure is 17.5 µM (active); as for `Fc1cc(Br)ccc1N=C(S)NCCc1ccccc1`, 27.5 µM (active); as for `O=C1N=C(c2ccccc2)N(c2ccccc2)C(=O)/C1=C(/O)c1ccccc1`, > 120 µM (not active).
Consider `Cc1cc(/C=C2\SC(N)=NC2=O)c(C)n1-c1ccccc1`, for which the EC50 is on record as > 120 µM (not active).
The same measure, in the same setting: as for `CN1CCN(C(=O)c2ccc(COc3ccc(C(C)(C)C)cc3)o2)CC1`, the figure is 35.2 µM (active).

The subject of the next experiment is BJ. The experiment can be described thus: cells. The note with it: Homo sapiens. In kind it is functional, cell-based.
On to `COc1cccc(NC(=O)c2ccc3c(c2)OCCO3)c1`, for which the EC50 was 18.2 µM (active).
The same measure, in the same setting: as for `O=C1C2CCN(CC2)C1Cc1ccc(OCCOc2ccccc2)cc1` (stereo unspecified), the figure is > 150 µM (not active).

The target of the next experiment is Luciferin 4-monooxygenase (Photinus pyralis, UniProt P08659). Nature of the experiment: inhibition of purified Photinus pyralis luciferase – biochemical, luminescence, dose response (AID 1891).
Luciferin 4-monooxygenase, sequence (P08659 whole entry): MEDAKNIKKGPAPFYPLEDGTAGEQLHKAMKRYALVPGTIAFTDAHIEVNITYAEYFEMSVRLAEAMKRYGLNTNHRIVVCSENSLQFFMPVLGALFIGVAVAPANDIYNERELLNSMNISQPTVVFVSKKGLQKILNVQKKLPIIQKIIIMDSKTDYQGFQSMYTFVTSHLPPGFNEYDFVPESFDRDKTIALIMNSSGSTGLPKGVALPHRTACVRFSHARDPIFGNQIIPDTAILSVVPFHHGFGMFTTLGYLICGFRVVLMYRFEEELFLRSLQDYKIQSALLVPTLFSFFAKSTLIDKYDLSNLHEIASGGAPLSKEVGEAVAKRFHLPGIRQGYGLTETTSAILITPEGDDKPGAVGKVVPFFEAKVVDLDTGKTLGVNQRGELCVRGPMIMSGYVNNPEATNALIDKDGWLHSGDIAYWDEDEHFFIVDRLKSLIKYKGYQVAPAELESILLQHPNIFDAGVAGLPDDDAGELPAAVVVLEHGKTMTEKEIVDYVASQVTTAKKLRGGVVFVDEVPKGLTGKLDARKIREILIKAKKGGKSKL
Settings: not given
As to `Cc1ccc(OCCC(=O)OCc2csc(CC(=O)Nc3ccccc3C)n2)cc1`, the EC50 is > 112 µM (not active).
`COc1cccc(NC(=O)c2ccc3c(c2)OCCO3)c1`: the EC50 is 4.7 µM (active).
Turning to `CN(C)c1oc(-c2ccco2)nc1C#N`, the EC50 is listed as > 112 µM (not active).
On to `OCCSc1nncn1/N=C/c1c[nH]c2ccccc12`, for which the EC50 was > 112 µM (not active).
For the molecule `Cn1cc(S(=O)(=O)N2CCOCC2)cc1C(=O)Nc1cccc(Cl)c1`, the EC50 is given as > 112 µM (not active).
Same read-out and setting: as for `COc1cccc(C(c2sc3ncnn3c2O)N2CCN(C(=O)c3ccco3)CC2)c1` (stereo unspecified), the figure is > 112 µM (not active).
Regarding `O=C(Nc1ccccc1)c1cccc(N2CCCC2=O)c1`, the EC50 is > 112 µM (not active).

System in a further experiment: not listed separately
The experiment can be described thus: Luminescence Cell-Based Dose Confirmation HTS to Identify Inhibitors of Platelet Dense Granule Release. [Related pubchem assays: 1663 (Primary HTS), 1678 (Summary of Project)]. The class given is functional.
Settings: not given
As to `Cc1ccc(OCCC(=O)OCc2csc(CC(=O)Nc3ccccc3C)n2)cc1`, the concentration giving a half-maximal response (EC50) is reported as > 112 µM (not active).
Consider `COc1cccc(NC(=O)c2ccc3c(c2)OCCO3)c1`, for which the EC50 is 3.52 µM (active).
As to `CN(C)c1oc(-c2ccco2)nc1C#N`, the EC50 was > 112 µM (not active).
Consider `OCCSc1nncn1/N=C/c1c[nH]c2ccccc12`, for which the EC50 was > 112 µM (not active).
With `Cn1cc(S(=O)(=O)N2CCOCC2)cc1C(=O)Nc1cccc(Cl)c1`, the EC50 is given as > 112 µM (not active).
As to `COc1cccc(C(c2sc3ncnn3c2O)N2CCN(C(=O)c3ccco3)CC2)c1` (stereo unspecified), the EC50 is on record as > 112 µM (not active).
Consider `O=C(Nc1ccccc1)c1cccc(N2CCCC2=O)c1`, for which the EC50 is 45.5 µM (active).

System in a further experiment: not listed separately
Nature of the experiment: Trypanosoma cruzi growth suppression in host cells – NIH3T3 host cells, beta-gal luminescence, confirmation (AID 2044).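 Further: intracellular parasites grown in NIH/3T3 mouse fibroblasts as host cells; luminescent beta-galactosidase reporter signal from transgenic T. cruzi replicating inside host cells; inhibitors lower the luminescence signal.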 In kind it is functional, cell-based.
Settings: not given
As to `O=C(NCC(c1cccnc1)N1CCN(c2ccccc2)CC1)c1ccco1` (stereo unspecified), the EC50 was 0.998 µM (active).

System in another experiment: not listed separately
The experiment can be described thus: viability of PTEN-deleted HCT116 cells – cell-based, HCT116 PTEN knockout, dose response (AID 1047).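 Further: HCT116 colon tumor cells with PTEN knocked out; cells exposed to compound for 60 hours before readout; potency for loss of cell viability measured by luminescence.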 In kind it is functional.
Settings: not given
Consider `COC(=O)c1sc(-c2ccccc2)cc1NC(=O)c1cc(OC)cc(OC)c1`, for which the EC50 was 25.3 µM (active).
Take `Cc1ccc(C(=O)NC(=S)Nc2cc(-c3nc4ccccc4s3)ccc2C)cc1`: the EC50 is 26.9 µM (active).
Same read-out and setting: as for `N=c1n(CCO)c2ccccc2n1CCOc1ccc(Cl)cc1Cl`, the figure is 8.23 µM (active).

System in a further experiment: not listed separately
Nature of the experiment: NIH3T3 cell viability loss – ATP luminescence, mouse fibroblasts, counter-screen, dose response (AID 2010).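 Further: cells exposed to compound for about 90 hours before reading.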 The class given is functional, cell-based.
Settings: not given
On the technique in general: The purpose of a counterscreen is to sort out artefacts and off-target activity.
As for `O=C(NCC(c1cccnc1)N1CCN(c2ccccc2)CC1)c1ccco1` (stereo unspecified), the EC50 is > 60 µM (not active).

System in the next experiment: not listed separately
The experiment can be described thus: viability of HCT116 lacking mutant beta-catenin – cell-based, human colon tumor, dose response (AID 1045).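 Further: HCT116 colon tumor cells with beta catenin knocked out; cells exposed to compound for 60 hours.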 The class given is functional.
Settings: not given
For `COC(=O)c1sc(-c2ccccc2)cc1NC(=O)c1cc(OC)cc(OC)c1`, the concentration giving a half-maximal response (EC50) was 21.7 µM (active).
`Cc1ccc(C(=O)NC(=S)Nc2cc(-c3nc4ccccc4s3)ccc2C)cc1`: the EC50 was 22 µM (active).
As to `N=c1n(CCO)c2ccccc2n1CCOc1ccc(Cl)cc1Cl`, the EC50 was 8.45 µM (active).

The subject of another experiment is BJ. The experiment can be described thus: BJ-TERT-LT-ST fibroblast viability loss – cell-based, RAS-independent, luminescence, dose response (AID 1935).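 Further: BJ fibroblasts immortalized with TERT plus LT and ST oncogenes.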 The class given is functional. The note with it: Homo sapiens.
For the molecule `COc1cccc(NC(=O)c2ccc3c(c2)OCCO3)c1`, the EC50 was > 150 µM (inconclusive).
For the molecule `O=C1C2CCN(CC2)C1Cc1ccc(OCCOc2ccccc2)cc1` (stereo unspecified), the EC50 is > 150 µM (not active).

System in another experiment: not listed separately
The experiment can be described thus: DRD fibroblast viability loss – cell-based, non-viral oncogenic, luminescence, dose response (AID 1934). In kind it is functional. The settings on record: Homo sapiens.
Regarding `COc1cccc(NC(=O)c2ccc3c(c2)OCCO3)c1`, the EC50 was 15.7 µM (active).
For `O=C1C2CCN(CC2)C1Cc1ccc(OCCOc2ccccc2)cc1` (stereo unspecified), the EC50 is > 150 µM (not active).

The target in another experiment is FAD-linked sulfhydryl oxidase ALR (Homo sapiens, UniProt P55789). The experiment can be described thus: ALR-catalysed DTT oxidation blockers – biochemical, H2O2 detection, luminescence, cherry-pick, dose response (AID 493248).
FAD-linked sulfhydryl oxidase ALR, sequence (P55789 whole entry): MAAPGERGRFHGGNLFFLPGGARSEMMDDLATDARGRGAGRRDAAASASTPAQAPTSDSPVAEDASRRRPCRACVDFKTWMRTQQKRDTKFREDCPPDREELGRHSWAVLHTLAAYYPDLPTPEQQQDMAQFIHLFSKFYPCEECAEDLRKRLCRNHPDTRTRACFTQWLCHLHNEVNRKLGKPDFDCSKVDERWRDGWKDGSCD
Settings: not given
Consider `O=C(NCC(c1cccnc1)N1CCN(c2ccccc2)CC1)c1ccco1` (stereo unspecified), for which the AC50 (commonly the concentration giving half of the maximal activity seen) was 3.08 µM (active).

In the next experiment the target is Cytochrome P450 2C19 (Homo sapiens, UniProt P33261). The experiment can be described thus: Cytochrome panel assay with activity outcomes. Panel member name: p450-cyp2c19 Compounds with AC50 equal or less than 10 uM are considered active. The class given is functional. The note with it: read-out: AC50.
Cytochrome P450 2C19, sequence (P33261 whole entry): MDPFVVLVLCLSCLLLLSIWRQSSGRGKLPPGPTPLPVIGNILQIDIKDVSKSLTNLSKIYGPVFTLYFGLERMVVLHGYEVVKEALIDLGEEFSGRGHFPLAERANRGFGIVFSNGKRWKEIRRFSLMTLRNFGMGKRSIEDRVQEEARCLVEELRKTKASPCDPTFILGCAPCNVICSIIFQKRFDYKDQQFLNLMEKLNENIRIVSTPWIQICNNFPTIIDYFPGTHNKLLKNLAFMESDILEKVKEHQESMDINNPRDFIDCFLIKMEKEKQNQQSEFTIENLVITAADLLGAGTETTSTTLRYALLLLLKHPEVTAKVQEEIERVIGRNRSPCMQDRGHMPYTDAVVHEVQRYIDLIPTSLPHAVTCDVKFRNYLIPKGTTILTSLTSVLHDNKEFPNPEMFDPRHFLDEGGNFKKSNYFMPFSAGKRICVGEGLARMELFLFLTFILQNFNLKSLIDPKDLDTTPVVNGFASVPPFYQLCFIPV
On to `CN1CCN(C(=O)c2ccc(COc3ccc(C(C)(C)C)cc3)o2)CC1`, for which the AC50 is 25.1 µM (inconclusive).

The next experiment concerns the target T1, Cytochrome P450 1A2 (Homo sapiens, UniProt P05177).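 Further: PubChem cytochrome P450 panel assay, CYP1A2 panel member.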
T1 sequence (P05177 whole entry): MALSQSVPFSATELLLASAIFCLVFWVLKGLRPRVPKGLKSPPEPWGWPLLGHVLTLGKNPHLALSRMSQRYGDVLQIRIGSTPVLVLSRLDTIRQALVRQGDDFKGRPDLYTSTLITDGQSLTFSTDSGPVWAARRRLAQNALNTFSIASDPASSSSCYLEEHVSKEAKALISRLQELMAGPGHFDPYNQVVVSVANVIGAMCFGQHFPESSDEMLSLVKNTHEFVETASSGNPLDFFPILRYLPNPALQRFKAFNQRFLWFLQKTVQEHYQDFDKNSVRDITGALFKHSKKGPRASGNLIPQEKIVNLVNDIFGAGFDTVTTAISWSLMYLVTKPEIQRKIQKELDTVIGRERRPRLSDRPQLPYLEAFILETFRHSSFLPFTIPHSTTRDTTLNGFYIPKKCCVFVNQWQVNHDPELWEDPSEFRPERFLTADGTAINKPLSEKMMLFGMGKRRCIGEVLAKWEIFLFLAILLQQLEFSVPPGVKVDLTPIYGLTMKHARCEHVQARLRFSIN
Test: not given
Settings: not given
Turning to `CN1CCN(C(=O)c2ccc(COc3ccc(C(C)(C)C)cc3)o2)CC1`, the AC50 is 12.6 µM (inconclusive).

The target in another experiment is Cytochrome P450 3A4 (Homo sapiens, UniProt P08684).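 Further: CYP3A4 tested as one member of a cytochrome P450 panel screen.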
Cytochrome P450 3A4, sequence (P08684 whole entry): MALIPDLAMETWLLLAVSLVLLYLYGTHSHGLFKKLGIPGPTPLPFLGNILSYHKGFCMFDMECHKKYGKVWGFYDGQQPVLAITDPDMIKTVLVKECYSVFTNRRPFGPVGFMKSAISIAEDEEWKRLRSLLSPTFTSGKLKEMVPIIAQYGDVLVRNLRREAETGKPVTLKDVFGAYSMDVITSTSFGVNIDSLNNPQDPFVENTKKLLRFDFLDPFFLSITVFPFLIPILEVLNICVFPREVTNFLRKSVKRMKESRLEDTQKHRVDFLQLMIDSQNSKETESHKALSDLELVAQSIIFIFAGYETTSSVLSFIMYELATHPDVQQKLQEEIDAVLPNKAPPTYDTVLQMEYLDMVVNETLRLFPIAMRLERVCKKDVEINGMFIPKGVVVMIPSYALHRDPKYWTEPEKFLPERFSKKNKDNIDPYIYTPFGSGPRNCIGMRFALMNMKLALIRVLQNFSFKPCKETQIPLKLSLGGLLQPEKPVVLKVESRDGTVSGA
Test: not given
Settings: not given
Turning to `Cc1ccc(C(=O)NC(=S)Nc2cc(-c3nc4ccccc4s3)ccc2C)cc1`, the AC50 is 10 µM (inconclusive).

The next experiment addresses Cytochrome P450 2C9 (Homo sapiens, UniProt P11712).
Test: not given
Settings: not given
As for `Cc1ccc(C(=O)NC(=S)Nc2cc(-c3nc4ccccc4s3)ccc2C)cc1`, the half-maximal activity concentration (AC50) is 1.78 µM (inconclusive).
Take `CN1CCN(C(=O)c2ccc(COc3ccc(C(C)(C)C)cc3)o2)CC1`: the AC50 is 31.6 µM (inconclusive).
